“And” between values parts separate entries of the source, which are not always exact repeats. Identical values can stand only once. Like-named read-outs stand apart in the source and are kept apart here.
Experiments:
SMN2-luciferase reporter [1] = assay: SMN2-luciferase reporter assay (clonal HEK-293 SMN2-luc cells); type: cell-based, human; conditions: for S/B: 0.5 mg/mL sodium butyrate vs DMSO
SMN2-luciferase reporter [2] = assay: as above; type: cell-based, human; design: increase of luciferase activity: dose or concentration left out as unconfirmed; conditions: for Na-But RLU ave: 0.5 mg/mL sodium butyrate; for S/B: 0.5 mg/mL sodium butyrate vs DMSO
[3] = system: SMN-luciferase transcripts; assay: qRT-PCR of SMN-luciferase transcripts in SMN2-luc cells; type: cell-based, human; conditions: 24 hours, relative to DMSO, normalized to GAPDH, aclarubicin at 300 nM, words
Procedure: Compounds were tested at three concentrations that display maximal activity in the luciferase assay. Cells were treated as described above for the luciferase assay. Cells were harvested by trypsinization, neutralized with trypsin inhibitor, and washed. RNA was isolated from the cells using TRIZOL Reagent (Invitrogen 15596-026). cDNA was generated using the IMPROM-II Reverse Transcription System (Promega A3801).
The forward primer pair recognizes the exon 5-6 junction, which includes a restriction site that was engineered into the reporter and will exclude amplification of endogenous SMN mRNA. The reverse primers recognize either exon 7 or luciferase for detection of full-length or total SMN-luciferase transcripts respectively. For a reference control, cDNA from the housekeeping gene glyceraldehyde-3-phosphate dehydrogenase (GAPDH) was amplified. The primers used include SMN exon5-forward ([…]) (SEQ ID NO: 3), luciferase-reverse ([…]) (SEQ ID NO: 4), exon7-reverse ([…]) (SEQ ID NO: 5), GAPDH-reverse (G3A) ([…]) (SEQ ID NO: 6) and GAPDH-forward (G3S) ([…]) (SEQ ID NO: 7). qPCR was performed as described in the protocol for iQ SYBRGREEN SUPERMIX (Biorad 170-8882) using an EPPENDORF Mastercycler ep realplex^4 Thermo Cycler. Reactions were incubated for a 10 minute, 94° C. hot start followed by 45 cycles of the following: 94° C. for 45 second, 60° C. for 15 seconds, 72° C. for 45 seconds. Melting curves for each reaction were obtained. Each sample was assayed in triplicate and every plate contained a 5-point cDNA dilution course to calculate amplification efficiency for each primer pair. The Pfaffl method was used to determine the change in transcript levels relative to the DMSO and normalized to GAPDH (Pfaffl, M. W., “A new mathematical model for relative quantification in real-time RT-PCR,” Nucleic Acids Res 2001, 29(9), 3e45).
Based on the new reporter design, it was predicted that this screen could detect increased SMN-luciferase protein levels caused by compounds that stimulate SMN2 transcription, exon 7 inclusion, or by increasing the half-life of the SMN mRNA or protein. Quantitative reverse transcriptase PCR (qRT-PCR) was used to analyze SMN-luciferase mRNAs. All assays used RNA from control and compound-treated SMN2-luc cells and primers pairs were chosen to amplify only the SMN-luciferase derived transcripts (FIG. 4A). A pair of primers were used that specifically detects both full-length (exon 7 included) and Δ7 (exon 7 excluded) SMN-luciferase transcripts (primers 1 and 3). To measure changes in exon 7 splicing efficiency, a primer pair was used that detects only the full-length (exon 7 included) SMN-luciferase transcript (primers 1 and 2).
For each sample, the percent increase in the amount of total SMN-luciferase transcripts (gray bar) and exon 7 included full-length SMN-luciferase transcripts (white bar) was plotted (FIG. 4). Compounds that increase transcription should show increased total SMN-luciferase transcripts (gray bar) with a proportional increase for exon 7 included transcripts (white bar), assuming that proper splicing of exon 7 is not rate limiting. Compounds that stimulate exon 7 inclusion should increase the amount of exon 7 included full-length transcript (white bar) detected with little to no change in the expression of total SMN-luciferase transcripts (gray bar). In these experiments, cells were treated with compound, harvested, and each cell pellet was divided for isolation of RNA and to assay luciferase activity. Each qRT-PCR sample was normalized to the housekeeping gene glyceraldehyde-3-phosphate dehydrogenase (GAPDH). The Pfaffl method was used to calculate the change in the amount of total SMN mRNA and determine whether compound treatments increased SMN transcripts.

SMA mice = assay: SMA mice, intraperitoneal dosing: lifespan, weight, time to right; type: in vivo, mouse; conditions: for Time to right: individual pup, raw data
Procedure: The animal studies included new derivatives of LDN-76070 and LDN-75654. Mice were injected intraperitoneally once daily from post-natal day 1-10. […] Compounds LDN-212014, LDN-212016, LDN-212351, and LDN-212391 were injected into a cohort of animals (3-4 each). […] In the Kaplan-Meier curve that DMSO control decreased survival by 50%—the compounds were in […] (FIG. 26A).
LDN-212014 and LDN-76070 were further tested in A7 SMA model mice. Mice were dosed using compounds dissolved in 100% DMSO injected at 20 mg/kg with each dose administered once daily by intraperitoneal injection. As shown in the black curves in the Kaplan-Meier plot, control animals lived 4-5 days longer than the DMSO vehicle treated animals, indicating toxicity. […] In fact, the compounds display a statistically significant increase in survival compared with the untreated animals. These compounds extend the lifespan of SMA mice despite the DMSO toxicity.
In ‘time to right’ experiments, animals are placed on their backs and the duration for animals to right themselves is recorded. Animals that are unable to right in less than 30 seconds are scored as a failure. DMSO treated animals were unable to right themselves, while a small percentage of untreated animals display the ability to right themselves for up to postnatal day (PND) 11. A larger percentage of treated animals can right themselves past PND 17, and in the case of one animal as late as PND 21.

[4] = Liver microsome stability
[5] = Solubility in PBS / aqueous solution; type: physicochemical; conditions: PBS
[6] = 96-well validation, 25,000 cells per well, 24 hrs
[7] = 96-well validation, 25,000 cells per well, 48 hrs
[8] = 96-well validation, 50,000 cells per well, 24 hrs
[9] = 96-well validation, 50,000 cells per well, 48 hrs
[10] = 384-well LDDN screen, 10,000 cells per well, 24 hrs
[11] = 384-well validation, 5,000 cells per well, 24 hrs
[12] = 384-well validation, 10,000 cells per well, 24 hrs

**Q.** For `CCCC(=O)[O-].[Na+]` [Na-But], which “Na-But RLU ave” value (SMN2-luciferase reporter [1]; 0.5 mg/mL sodium butyrate, 384-well validation, 7,500 cells per well, 24 hrs) is on record?
**A.** Its value is 2832 RLU.

**Q.** What about the “Na-But RLU ave” value (SMN2-luciferase reporter [2]; [6]) of the same compound?
**A.** Its value is 2046 RLU.

**Q.** And the “Na-But RLU ave” value (SMN2-luciferase reporter [2]; [7])?
**A.** The value was 3696 RLU.

**Q.** What about the “Na-But RLU ave” value (SMN2-luciferase reporter [2]; [8]) of the same compound?
**A.** The value was 4798 RLU.

**Q.** What about the “Na-But RLU ave” value (SMN2-luciferase reporter [2]; [9]) of the same compound?
**A.** Its value is 7505 RLU.

**Q.** And the “Na-But RLU ave” value (SMN2-luciferase reporter [2]; [10])?
**A.** Its value is 13894 RLU.

**Q.** And the “Na-But RLU ave” value (SMN2-luciferase reporter [2]; [11])?
**A.** Its value is 1332 RLU.

**Q.** And the “Na-But RLU ave” value (SMN2-luciferase reporter [2]; [12])?
**A.** Its value is 39287 RLU.

**Q.** Which “exon 7 included full-length SMN-luciferase transcripts” value [3] does the source give for `CCCC(=O)[O-].[Na+]` [sodium butyrate, reference compound] here?
**A.** Its value is “increased”.

**Q.** And the “total SMN-luciferase transcripts” value [3]?
**A.** Its value is “increased”.

**Q.** And the S/B (SMN2-luciferase reporter [1]; [7])?
**A.** The S/B was 2.6.

**Q.** What about the S/B (SMN2-luciferase reporter [1]; [10]) of the same compound?
**A.** Its S/B is 3.0.

**Q.** What about the S/B (SMN2-luciferase reporter [1]; 384-well validation, 7,500 cells per well, 24 hrs) of the same compound?
**A.** Its S/B is 2.8.

**Q.** What about the S/B (SMN2-luciferase reporter [2]; [6]) of the same compound?
**A.** The S/B was 3.0.

**Q.** And the S/B (SMN2-luciferase reporter [2]; [8])?
**A.** Its S/B is 3.5.

**Q.** And the S/B (SMN2-luciferase reporter [2]; [9])?
**A.** The S/B was 2.9.

**Q.** And the S/B (SMN2-luciferase reporter [2]; [11])?
**A.** Its S/B is 2.6.

**Q.** What about the S/B (SMN2-luciferase reporter [2]; [12]) of the same compound?
**A.** The S/B was 4.9.

**Q.** What about the “increase of luciferase activity” value (SMN2-luciferase reporter [2]; 96-well format, sodium butyrate) of the same compound?
**A.** The value was “more than 3 fold”.

**Q.** What about the EC50 (SMN2-luciferase reporter [2]; Homo sapiens, HEK293) of the same compound?
**A.** Its EC50 is 1000 mg/L.

**Q.** What about the Max. fold increase (SMN2-luciferase reporter [2]; cell-based reporter response to known SMN2 modulating compounds) of the same compound?
**A.** The Max. fold increase was 10 fold.

**Q.** Which results are given for `O=C(Nc1ncc(C2(O)CCC2)s1)c1ccc(F)c(Cl)c1` [LDN-212014]?
**A.** lifespan (SMA mice; IP once daily post-natal day 1-10, compounds in 20% DMSO, 3-4 animals each, words): extension of lifespan; weight of the treated animals (SMA mice; IP once daily post-natal day 1-10, compounds in 20% DMSO, words): increased; Time to right (SMA mice; PND 6): Fail (Fail = >30 sec); Time to right (SMA mice; PND 6, listed as 212014): dead; Time to right (SMA mice; PND 7): Fail (Fail = >30 sec); Time to right (SMA mice; PND 7, listed as 212014): dead; Time to right (SMA mice; PND 8): Fail (Fail = >30 sec); Time to right (SMA mice; PND 8, listed as 212014): dead; Time to right (SMA mice; PND 9): Fail (Fail = >30 sec) (2×) and dead and 26 seconds; Time to right (SMA mice; PND 10): Fail (Fail = >30 sec); Time to right (SMA mice; PND 10, listed as 212014): dead; Time to right (SMA mice; PND 11): 5 seconds and dead and Fail (Fail = >30 sec) (2×); Time to right (SMA mice; PND 12): 16 s; Time to right (SMA mice; PND 12, listed as 212014): dead; Time to right (SMA mice; PND 13): Fail (Fail = >30 sec); Time to right (SMA mice; PND 13, listed as 212014): dead; Time to right (SMA mice; PND 14): 5 s; Time to right (SMA mice; PND 14, listed as 212014): dead; Time to right (SMA mice; PND 15): 14 s; Time to right (SMA mice; PND 15, listed as 212014): dead; Time to right (SMA mice; PND 16): Fail (Fail = >30 sec); Time to right (SMA mice; PND 16, listed as 212014): dead; Time to right (SMA mice; PND 17): Fail (Fail = >30 sec); Time to right (SMA mice; PND 17, listed as 212014): dead; Time to right (SMA mice; PND 18): dead; Time to right (SMA mice; PND 19): dead; Time to right (SMA mice; PND 20): dead; lifespan (SMA mice; SMA model mice, 20 mg/kg once daily IP in 100% DMSO, vs DMSO vehicle, p<0.0001, words): significantly increased lifespan; T1/2 in liver microsomes ([4]; Table 7): 39 min; Stabilityin liver microsomes ([4]; Table 8): 39 min; Stability ([4]; Table 9): 39 min; half-life ([4]; mouse, liver microsomes, t1/2 in mouse liver microsomes, mouse liver microsomes): 39 min; Maximal solubility in PBS [5]: >2000 µM; EC50 (SMN2-luciferase reporter [2]; Homo sapiens, HEK293, reporter assay, Table 6, read-out: Ec50): 0.5 µM; Emax (SMN2-luciferase reporter [2]; Homo sapiens, HEK293, reporter assay, Table 6, read-out: Max % Activity): 180%; Maximum % activation (SMN2-luciferase reporter [2]; Table 7): 156.6 ± 30.7%; EC50 (SMN2-luciferase reporter [2]; Table 7, read-out: EC50): 0.3 µM; Active (SMN2-luciferase reporter [2]; reporter assay, Table 6): Yes

From patent US9212209B2, “Screening methods for spinal muscular atrophy” (Indiana University Research and Technology Corporation, priority 2012, dated 2015)
